Assay results: ChEMBL document CHEMBL4402543, “Bioisosteric Development of Multitarget Nonsteroidal Anti-Inflammatory Drug-Carbonic Anhydrases Inhibitor Hybrids for the Management of Rheumatoid Arthritis” (J Med Chem, 2020)
Calls of active or inactive are those of the source.

How the values were obtained:
[1] = Half life in human plasma by LC-MS/MS analysis; type: ADME, cell-free
[2] = Half life in Sprague-Dawley rat plasma by LC-MS/MS analysis; type: ADME, cell-free
[3] = molecular target: COX1 (Prostaglandin G/H synthase 1) (Homo sapiens, UniProt P23219); experiment: Inhibition of COX1 in human platelet rich plasma in assessed as inhibition of ADP-induced platelet aggregation at 10 uM incubated for 5 mins by turbidimetry based Born's method relative to control
Sequence of COX1 (Prostaglandin G/H synthase 1) (P23219 whole entry): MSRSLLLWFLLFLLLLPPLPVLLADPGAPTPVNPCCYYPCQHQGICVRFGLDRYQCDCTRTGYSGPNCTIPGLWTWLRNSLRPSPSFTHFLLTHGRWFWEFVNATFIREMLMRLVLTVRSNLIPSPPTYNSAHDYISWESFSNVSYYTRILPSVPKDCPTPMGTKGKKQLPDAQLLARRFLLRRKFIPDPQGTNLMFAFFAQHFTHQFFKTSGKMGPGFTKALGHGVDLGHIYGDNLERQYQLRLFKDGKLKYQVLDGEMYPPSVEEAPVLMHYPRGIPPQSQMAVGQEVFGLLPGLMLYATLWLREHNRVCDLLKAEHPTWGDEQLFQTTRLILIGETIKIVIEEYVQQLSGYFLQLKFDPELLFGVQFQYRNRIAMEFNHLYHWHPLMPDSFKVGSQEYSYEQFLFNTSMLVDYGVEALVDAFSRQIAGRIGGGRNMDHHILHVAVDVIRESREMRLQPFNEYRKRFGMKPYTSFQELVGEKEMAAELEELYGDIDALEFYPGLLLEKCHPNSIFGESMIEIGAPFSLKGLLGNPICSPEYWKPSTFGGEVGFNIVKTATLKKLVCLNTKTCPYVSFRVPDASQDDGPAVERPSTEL

[4] = molecular target: T1, Prostaglandin G/H synthase 2 (Mus musculus) (UniProt Q05769); experiment: Inhibition of COX2 in mouse RAW264.7 cells assessed as reduction in LPS-induced inflammation by measuring reduction in PGE2 level at 100 uM treated 1 hr after LPS stimulation and measured after 18 hrs by ELISA relative to control; type: cell-based
T1 sequence (whole entry): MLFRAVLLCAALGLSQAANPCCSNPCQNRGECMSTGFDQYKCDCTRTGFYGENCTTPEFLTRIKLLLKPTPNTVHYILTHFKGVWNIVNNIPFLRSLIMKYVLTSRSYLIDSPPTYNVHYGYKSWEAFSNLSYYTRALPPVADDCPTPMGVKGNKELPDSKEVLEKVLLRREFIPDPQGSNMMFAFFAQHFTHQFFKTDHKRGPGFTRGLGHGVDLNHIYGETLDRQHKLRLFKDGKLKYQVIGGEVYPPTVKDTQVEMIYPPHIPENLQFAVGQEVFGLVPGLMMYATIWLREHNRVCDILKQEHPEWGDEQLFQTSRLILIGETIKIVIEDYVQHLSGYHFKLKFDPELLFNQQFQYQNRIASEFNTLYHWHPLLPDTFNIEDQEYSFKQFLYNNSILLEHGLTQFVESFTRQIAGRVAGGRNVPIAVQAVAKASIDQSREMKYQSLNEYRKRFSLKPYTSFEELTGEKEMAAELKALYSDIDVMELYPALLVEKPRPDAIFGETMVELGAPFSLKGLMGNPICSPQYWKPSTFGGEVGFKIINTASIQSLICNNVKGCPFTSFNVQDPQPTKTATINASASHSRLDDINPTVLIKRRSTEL

[5] = Stability in PBS; type: physicochemical; conditions: buffer
[6] = molecular target: Carbonic anhydrase 12 (Homo sapiens) (UniProt O43570)
Sequence of Carbonic anhydrase 12 (Homo sapiens) (O43570 whole entry): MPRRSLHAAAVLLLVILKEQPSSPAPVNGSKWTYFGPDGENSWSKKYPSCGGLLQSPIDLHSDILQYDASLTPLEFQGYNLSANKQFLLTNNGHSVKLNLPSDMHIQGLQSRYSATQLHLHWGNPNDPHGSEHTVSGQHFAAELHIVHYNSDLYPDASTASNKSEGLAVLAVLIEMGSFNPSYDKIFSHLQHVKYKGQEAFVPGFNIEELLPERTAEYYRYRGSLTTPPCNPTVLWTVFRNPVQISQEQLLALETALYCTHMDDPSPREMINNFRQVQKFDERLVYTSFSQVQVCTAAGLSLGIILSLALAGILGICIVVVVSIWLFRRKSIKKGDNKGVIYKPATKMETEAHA
Description: Inhibition of human CA12 pre-incubated for 6 hrs by stopped- flow CO2 hydrase assay method based Cheng-Prusoff equation analysis

[7] = molecular target: Carbonic anhydrase 4 (Homo sapiens) (UniProt P22748)
Sequence of Carbonic anhydrase 4 (Homo sapiens) (P22748 whole entry): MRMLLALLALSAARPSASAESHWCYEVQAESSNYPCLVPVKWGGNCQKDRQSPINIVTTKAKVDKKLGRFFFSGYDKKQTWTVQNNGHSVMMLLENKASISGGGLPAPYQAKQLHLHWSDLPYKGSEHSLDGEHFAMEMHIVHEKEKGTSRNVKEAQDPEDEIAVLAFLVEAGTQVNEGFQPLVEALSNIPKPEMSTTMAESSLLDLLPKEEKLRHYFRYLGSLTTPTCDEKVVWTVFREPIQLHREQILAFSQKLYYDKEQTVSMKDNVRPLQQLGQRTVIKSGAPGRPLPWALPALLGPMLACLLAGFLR
Description: Inhibition of human CA4 pre-incubated for 6 hrs by stopped- flow CO2 hydrase assay method based Cheng-Prusoff equation analysis

[8] = molecular target: Carbonic anhydrase 9 (Homo sapiens) (UniProt Q16790)
Description: Inhibition of human CA9 pre-incubated for 6 hrs by stopped- flow CO2 hydrase assay method based Cheng-Prusoff equation analysis

[9] = molecular target: Carbonic anhydrase 2 (Homo sapiens) (UniProt P00918)
Description: Inhibition of human CA2 pre-incubated for 6 hrs by stopped- flow CO2 hydrase assay method based Cheng-Prusoff equation analysis

[10] = molecular target: Carbonic anhydrase 1 (Homo sapiens) (UniProt P00915)
Sequence of Carbonic anhydrase 1 (Homo sapiens) (P00915 2-261 limits assumed): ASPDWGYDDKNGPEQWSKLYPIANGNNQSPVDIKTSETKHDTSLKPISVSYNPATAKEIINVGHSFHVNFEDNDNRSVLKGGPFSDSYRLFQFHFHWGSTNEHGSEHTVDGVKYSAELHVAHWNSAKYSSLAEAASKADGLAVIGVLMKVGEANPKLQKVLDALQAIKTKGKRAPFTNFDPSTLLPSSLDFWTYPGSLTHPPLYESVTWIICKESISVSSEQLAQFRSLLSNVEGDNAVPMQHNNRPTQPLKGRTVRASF
Description: Inhibition of human CA1 pre-incubated for 6 hrs by stopped- flow CO2 hydrase assay method based Cheng-Prusoff equation analysis

[11] = molecular target: Carbonic anhydrase 7 (Homo sapiens) (UniProt P43166)
Sequence of Carbonic anhydrase 7 (Homo sapiens) (P43166 whole entry): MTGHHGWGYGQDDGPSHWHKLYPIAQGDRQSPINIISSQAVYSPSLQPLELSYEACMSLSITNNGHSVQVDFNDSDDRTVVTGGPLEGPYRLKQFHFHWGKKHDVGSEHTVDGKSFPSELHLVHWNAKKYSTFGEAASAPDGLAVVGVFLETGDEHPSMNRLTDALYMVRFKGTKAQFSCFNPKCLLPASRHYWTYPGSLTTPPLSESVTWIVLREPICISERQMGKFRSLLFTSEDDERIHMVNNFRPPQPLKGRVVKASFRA
Description: Inhibition of human CA7 pre-incubated for 6 hrs by stopped- flow CO2 hydrase assay method based Cheng-Prusoff equation analysis

Rattus norvegicus [12] = experiment: Antihyperalgesic activity in Sprague-Dawley rat model of Complete freund's adjuvant-induced arthritis assessed as increase in pain threshold of ipsilateral paw at 10 mg/kg, po starting from day 14 after CFA injection and measured at 0 to 60 mins by paw pressure test; type: functional, organism-based
[13] = molecular target: T1, Prostaglandin G/H synthase 2 (Mus musculus); experiment: Inhibition of COX2 in mouse RAW264.7 cells assessed as reduction in LPS-induced inflammation by measuring reduction in PGE2 level at 1 uM treated 1 hr after LPS stimulation and measured after 18 hrs by ELISA relative to control; type: cell-based
Rattus norvegicus [14] = experiment: (§1) Antihyperalgesic activity in Sprague-Dawley rat model of Complete freund's adjuvant-induced arthritis assessed as reduction in difference between weight burdened on contralateral and ipsilateral paw at 30 mg/kg, po starting from day 14 after CFA injection and measured at 15 mins incapacitance test; type: functional, organism-based
Rattus norvegicus [15] = experiment: Antihyperalgesic activity in Sprague-Dawley rat model of Complete freund's adjuvant-induced arthritis assessed as reduction in difference between weight burdened on contralateral and ipsilateral paw at 30 mg/kg, po starting from day 14 after CFA injection and measured at 45 mins incapacitance test; type: functional, organism-based
Rattus norvegicus [16] = experiment: Antihyperalgesic activity in Sprague-Dawley rat model of Complete freund's adjuvant-induced arthritis assessed as increase in pain threshold of ipsilateral paw at 30 mg/kg, po starting from day 14 after CFA injection and measured at 15 to 30 mins by paw pressure test; type: functional, organism-based
Rattus norvegicus [17] = experiment: as §1, with “15 to 30” for “15”; type: functional, organism-based
Rattus norvegicus [18] = experiment: Antihyperalgesic activity in Sprague-Dawley rat model of Complete freund's adjuvant-induced arthritis assessed as reduction in difference between weight burdened on contralateral and ipsilateral paw at 30 mg/kg, po starting from day 14 after CFA injection and measured at 30 mins incapacitance test; type: functional, organism-based
Rattus norvegicus [19] = experiment: Antihyperalgesic activity in Sprague-Dawley rat model of Complete freund's adjuvant-induced arthritis assessed as increase in pain threshold of ipsilateral paw at 100 mg/kg, po starting from day 14 after CFA injection and measured at 15 mins by paw pressure test; type: functional, organism-based

In the case of `CC(C(=O)NCCOc1ccc2oc(=O)ccc2c1)c1ccc(-c2ccccc2)c(F)c1` (stereo not given), the half-life [1] is reported as > 4 h and the half-life [2] is reported as > 4 h.
In the case of `CC(C(=O)NCCOc1ccc2ccc(=O)oc2c1)c1ccc(-c2ccccc2)c(F)c1` (stereo not given), the half-life [1] is reported as > 4 h and the half-life [2] is reported as > 4 h.
With `O=C(Cc1ccccc1Nc1c(Cl)cccc1Cl)NCCOc1ccc2oc(=O)ccc2c1` the inhibition at 5 min, 10 µM [3] was 5 to 30%, the half-life [1] was > 4 h and the inhibition [4] was 75%. The half-life [2] was > 4 h.
For `COc1ccc2cc([C@H](C)C(=O)OCCOc3ccc4ccc(=O)oc4c3)ccc2c1`, the half-life [1] was > 4 h, the Stability [5] was “Stable” and the half-life [2] was < 0.0167 h.
For `COc1ccc2c(c1)c(CC(=O)NCCOc1ccc3oc(=O)ccc3c1)c(C)n2C(=O)c1ccc(Cl)cc1`, the half-life [1] was > 4 h and the half-life [2] was > 4 h.
In the case of `COc1ccc2cc([C@H](C)C(=O)NCCOc3ccc4oc(=O)ccc4c3)ccc2c1`, the half-life [1] is reported as > 4 h and the half-life [2] is reported as > 4 h.
In the case of `COc1ccc2cc([C@H](C)C(=O)NCCOc3ccc4ccc(=O)oc4c3)ccc2c1`, the half-life [1] is reported as > 4 h and the half-life [2] is reported as > 4 h.
In the case of `CC1=C(CC(=O)OCCOc2ccc3oc(=O)ccc3c2)c2cc(F)ccc2/C1=C\c1ccc([S+](C)[O-])cc1` (stereo not given), the half-life [1] is reported as > 4 h, the Stability [5] is reported as “Stable” and the half-life [2] is reported as 0.0917 h.
For `CC(C)Cc1ccc(C(C)C(=O)OCCOc2ccc3oc(=O)ccc3c2)cc1` (racemic), the Ki [6] was 459 nM, the inhibition at 5 min, 10 µM [3] was 5 to 30% and the Ki [7] was 3.6 nM. The Ki [8] was 25.3 nM, the Ki [9] was > 10000 nM and the Ki [10] was > 10000 nM. For the same molecule, the half-life [1] was > 4 h, the Stability [5] was “Stable” and the half-life [2] was 0.0583 h. For the same molecule, the Ki [11] was > 10000 nM.
Molecule `CC(C)Cc1ccc(C(C)C(=O)OCCOc2ccc3ccc(=O)oc3c2)cc1` (racemic) has a Ki [6] of 5.3 nM, an inhibition at 5 min, 10 µM [3] of 5 to 30% and a Ki [7] of 6.5 nM. For the same molecule, the Ki [8] was 3.9 nM, the Ki [9] was > 10000 nM and the Ki [10] was > 10000 nM. For the same molecule, the half-life [1] was > 4 h, the Stability [5] was “Stable” and the half-life [2] was 0.0533 h. For the same molecule, the Ki [11] was > 10000 nM.
With `CC(C(=O)OCCOc1ccc2oc(=O)ccc2c1)c1ccc(-c2ccccc2)c(F)c1` (racemic) the half-life [1] was > 4 h, the Stability [5] was “Stable” and the half-life [2] was 0.0217 h.
With `COc1ccc2c(c1)c(CC(=O)OCCOc1ccc3oc(=O)ccc3c1)c(C)n2C(=O)c1ccc(Cl)cc1` the half-life [1] was > 4 h, the Stability [5] was “Stable” and the half-life [2] was 0.0467 h.
For `COc1ccc2cc([C@H](C)C(=O)OCCOc3ccc4oc(=O)ccc4c3)ccc2c1`, the half-life [1] was > 4 h, the Stability [5] was “Stable” and the half-life [2] was 0.0183 h.
For `O=C(Cc1ccccc1Nc1c(Cl)cccc1Cl)OCCOc1ccc2ccc(=O)oc2c1`, the half-life [1] was 0.3 h, the Stability [5] was “Stable” and the half-life [2] was < 0.0167 h.
In the case of `CC(C(=O)NCCOc1ccc2oc(=O)ccc2c1)c1cccc(C(=O)c2ccccc2)c1` (stereo not given), the half-life [1] is reported as > 4 h and the half-life [2] is reported as > 4 h.
In the case of `CC(C(=O)OCCOc1ccc2ccc(=O)oc2c1)c1ccc(-c2ccccc2)c(F)c1` (racemic), the half-life [1] is reported as > 4 h, the Stability [5] is reported as “Stable” and the half-life [2] is reported as 0.04 h.
For `COc1ccc2c(c1)c(CC(=O)OCCOc1ccc3ccc(=O)oc3c1)c(C)n2C(=O)c1ccc(Cl)cc1`, the half-life [1] was > 4 h, the Stability [5] was “Stable” and the half-life [2] was 0.0333 h.
With `CC1=C(CC(=O)NCCOc2ccc3ccc(=O)oc3c2)c2cc(F)ccc2/C1=C\c1ccc([S+](C)[O-])cc1` (stereo not given) the half-life [1] was > 4 h and the half-life [2] was > 4 h.
In the case of `CC1=C(CC(=O)NCCOc2ccc3oc(=O)ccc3c2)c2cc(F)ccc2/C1=C\c1ccc([S+](C)[O-])cc1` (stereo not given), the half-life [1] is reported as > 4 h and the half-life [2] is reported as > 4 h.
With `CC(C(=O)NCCOc1ccc2ccc(=O)oc2c1)c1cccc(C(=O)c2ccccc2)c1` (stereo not given) the half-life [1] was > 4 h and the half-life [2] was > 4 h.
With `CC(C)Cc1ccc(C(C)C(=O)NCCOc2ccc3ccc(=O)oc3c2)cc1` (stereo not given) the inhibition at 5 min, 10 µM [3] was 5 to 30%, the half-life [1] was > 4 h and the Activity (Rattus norvegicus [12]) was “Active”. For the same molecule, the inhibition [13] was “Active”, the inhibition [4] was “Active” and the half-life [2] was > 4 h.
With `CC(C)Cc1ccc(C(C)C(=O)NCCOc2ccc3oc(=O)ccc3c2)cc1` (stereo not given) the inhibition at 5 min, 10 µM [3] was 5 to 30%, the half-life [1] was > 4 h and the half-life [2] was > 4 h.
In the case of `CC(C(=O)O)c1cccc(C(=O)c2ccccc2)c1` (stereo not given) [KETOPROFEN], the Activity (Rattus norvegicus [14]) is reported as “Active”, the Activity (Rattus norvegicus [15]) is reported as “inactive” and the Activity (Rattus norvegicus [16]) is reported as “Active”. The inhibition at 5 min, 10 µM [3] was 25%, the Activity (Rattus norvegicus [17]) was “Active” and the Activity (Rattus norvegicus [18]) was “inactive”.
In the case of `O=C(Cc1ccccc1Nc1c(Cl)cccc1Cl)NCCOc1ccc2ccc(=O)oc2c1`, the inhibition at 5 min, 10 µM [3] is reported as > 15%, the half-life [1] is reported as > 4 h and the half-life [2] is reported as > 4 h.
In the case of `O=C(Cc1ccccc1Nc1c(Cl)cccc1Cl)OCCOc1ccc2oc(=O)ccc2c1`, the half-life [1] is reported as 0.533 h, the Stability [5] is reported as “Stable” and the half-life [2] is reported as < 0.0167 h.
In the case of `CC1=C(CC(=O)OCCOc2ccc3ccc(=O)oc3c2)c2cc(F)ccc2/C1=C\c1ccc([S+](C)[O-])cc1` (stereo not given), the half-life [1] is reported as > 4 h, the Stability [5] is reported as “Stable” and the half-life [2] is reported as 0.277 h.
`O=C(O)Cc1ccccc1Nc1c(Cl)cccc1Cl` [DICLOFENAC] showed an inhibition at 5 min, 10 µM [3] of 15%.
With `COc1ccc2c(c1)c(CC(=O)NCCOc1ccc3ccc(=O)oc3c1)c(C)n2C(=O)c1ccc(Cl)cc1` the half-life [1] was > 4 h and the half-life [2] was > 4 h.
For `CC(C)Cc1ccc(C(C)C(=O)O)cc1` (stereo not given) [IBUPROFEN], the inhibition at 5 min, 10 µM [3] was > 60% and the Activity (Rattus norvegicus [19]) was “Active”.
